We go through seven compounds from US12186302B2, “Dipeptidyl peptidase-IV inhibitor and food with function claims” (TOYOTA JIDOSHA KABUSHIKI KAISHA, priority 2020, dated 2025).

For assay [1], the target named is T1, DPP-IV (Homo sapiens, UniProt P27487). The assay is described as follows: DPP (IV) Inhibitor Screening Assay Kit (Cayman Chemical), fluorescence. It counts as biochemical. As to conditions: for DPP-IV inhibitory activity (inhibition rate, FIG. 1): comparison of various catechins, 37° C., 30 minutes. From the text:
In this Example, various catechins including a methylated catechin were used to examine their DPP-IV inhibitory activity. Regarding the DPP-IV inhibitory activity, a commercially available DPP (IV) Inhibitor Screening Assay Kit (manufactured by Cayman Chemical) was used. Catechins tested in this Example were epicatechin-3-O-gallate (ECG), epicatechin (EC), epigallocatechin(EGC), (−)-epigallocatechin gallate (EGCG), and (−)-epigallocatechin 3-(3″-O-methyl)gallate (EGCG3″Me). These catechins were purchased from Nagara Science Co., Ltd. In addition, caffeine was purchased from Sigma-Aldrich, and L-theanine was purchased from FUJIFILM Wako Pure Chemical Corporation for testing.
In the experiment, first, a sample (5 μL), buffer (15 μL), DPP-IV (5 μL), and a substrate (25 μL) were added to a 96-well plate and incubated at 37° C. for 30 minutes. Then, the fluorescence intensity was measured by using a fluorometer (Envision 2104 Multilaber Reader, manufactured by Perkin Elmer) (excitation wavelength: 355 nm; fluorescence wavelength: 450 nm).
Next, the fluorescence intensity measured with the addition of ultrapure water (5 μL), buffer (20 μL), and a substrate (25 μL) was subtracted as a background from the fluorescence intensity of each sample. The fluorescence intensity measured with the addition of ultrapure water (5 μL), buffer (15 μL), DPP-IV (5 μL), and a substrate (25 μL) was defined as 100% initial activity.
The inhibition rate was calculated by subtracting the fluorescence intensity of the sample from the fluorescence intensity of 100% initial activity, then dividing the difference by the fluorescence intensity of 100% initial activity, and finally multiplying the quotient by 100. As a positive control, sitagliptin included in the kit was used.
Specifically, in the experiment described above, the concentration of EGCG3″Me was set to 1 μM, 5 μM, 10 μM, 50 μM, 100 μM or 200 μM, and the DPP-IV inhibitory activity was measured using the DPP (IV) Inhibitor Screening Assay Kit.

In assay [2] the target is T1, DPP-IV. As to conditions: background art, JP Patent Publication (Kokai) No. 2018-118939 A; cited from earlier work.

T1 sequence (P27487 whole entry): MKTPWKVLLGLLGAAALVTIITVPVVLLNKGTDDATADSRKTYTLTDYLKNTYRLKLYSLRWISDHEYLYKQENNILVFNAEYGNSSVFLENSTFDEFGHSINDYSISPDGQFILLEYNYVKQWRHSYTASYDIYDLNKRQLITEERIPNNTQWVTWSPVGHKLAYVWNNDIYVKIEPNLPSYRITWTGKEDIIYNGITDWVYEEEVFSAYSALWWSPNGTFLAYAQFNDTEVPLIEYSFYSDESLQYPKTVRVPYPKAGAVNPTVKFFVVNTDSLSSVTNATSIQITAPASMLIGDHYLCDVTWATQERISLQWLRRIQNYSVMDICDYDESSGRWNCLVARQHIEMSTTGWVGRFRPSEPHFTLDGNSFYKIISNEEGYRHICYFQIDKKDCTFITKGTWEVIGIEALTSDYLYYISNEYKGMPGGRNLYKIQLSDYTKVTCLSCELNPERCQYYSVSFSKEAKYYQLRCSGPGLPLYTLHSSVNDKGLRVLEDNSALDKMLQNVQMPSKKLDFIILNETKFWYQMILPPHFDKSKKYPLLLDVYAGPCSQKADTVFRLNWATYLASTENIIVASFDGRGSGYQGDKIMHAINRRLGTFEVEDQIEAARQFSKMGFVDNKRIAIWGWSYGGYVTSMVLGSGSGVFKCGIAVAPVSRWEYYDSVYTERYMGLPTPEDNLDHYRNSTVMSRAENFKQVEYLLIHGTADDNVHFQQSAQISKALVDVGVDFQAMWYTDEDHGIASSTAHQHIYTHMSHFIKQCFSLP

Regarding (−)-epigallocatechin gallate [EGCG], the “DPP-IV inhibitory activity (inhibition rate, FIG. 1)” value in assay [1] is “excellent DPP-IV inhibitory activity”. Further, the DPP-IV inhibitory effect entry in assay [2] is reported as “have the DPP-IV inhibitory effect”.
For `O=C(O[C@@H]1Cc2c(O)cc(O)cc2O[C@@H]1c1ccc(O)c(O)c1)c1cc(O)c(O)c(O)c1` [ECg, epicatechin gallate], the DPP-IV inhibitory effect entry in assay [2] is recorded as “have the DPP-IV inhibitory effect”.
Take `O=C(O[C@@H]1Cc2c(O)cc(O)cc2O[C@H]1c1cc(O)c(O)c(O)c1)c1cc(O)c(O)c(O)c1` [GCg, gallocatechin gallate]: the DPP-IV inhibitory effect result in assay [2] is recorded as “have the DPP-IV inhibitory effect”.
Turning to `Oc1cc(O)c2c(c1)O[C@H](c1cc(O)c(O)c(O)c1)[C@H](O)C2` [EGC, epigallocatechin], the DPP-IV inhibitory effect entry in assay [2] is given as “have the DPP-IV inhibitory effect”.
Turning to `Oc1cc(O)c2c(c1)O[C@H](c1cc(O)c(O)c(O)c1)[C@@H](O)C2` [GC, gallocatechin], the DPP-IV inhibitory effect entry in assay [2] is listed as “have the DPP-IV inhibitory effect”.
For the compound catechin gallate [Cg], the DPP-IV inhibitory effect entry in assay [2] is “have the DPP-IV inhibitory effect”.
Regarding “epigallocatechin-3-O-(3-O-methyl)gallate [EGCG3″Me]”, in assay [1] (1 μM, 5 μM, 10 μM, 50 μM, 100 μM or 200 μM), the “relationship between concentration and DPP-IV inhibitory activity (FIG. 2)” value was “tends to increase as the concentration increases”. For the same compound, the “DPP-IV inhibitory activity (inhibition rate, FIG. 1)” value in assay [1] is “particularly excellent DPP-IV inhibitory activity”. Further, the “DPP-IV inhibitory activity (FIG. 2)” value in assay [1] (when concentration exceeds 50 μM) is on record as “extremely excellent DPP-IV inhibitory activity”.
